Measured values from ChEMBL document CHEMBL3352018 (J Med Chem, 2014).
Calls of active or inactive are those of the source. The rule behind the calls is not given here.

Legend:
Format in all cases: cell-based
[1] = molecular target: T1, Sodium-dependent neutral amino acid transporter B(0)AT2 (Homo sapiens, UniProt Q9H2J7); assay: Inhibition of eGFP-tagged human B0AT2 expressed in HEK293 cells measured within 10 mins by [3H]proline uptake assay
T1 sequence (Q9H2J7 whole entry): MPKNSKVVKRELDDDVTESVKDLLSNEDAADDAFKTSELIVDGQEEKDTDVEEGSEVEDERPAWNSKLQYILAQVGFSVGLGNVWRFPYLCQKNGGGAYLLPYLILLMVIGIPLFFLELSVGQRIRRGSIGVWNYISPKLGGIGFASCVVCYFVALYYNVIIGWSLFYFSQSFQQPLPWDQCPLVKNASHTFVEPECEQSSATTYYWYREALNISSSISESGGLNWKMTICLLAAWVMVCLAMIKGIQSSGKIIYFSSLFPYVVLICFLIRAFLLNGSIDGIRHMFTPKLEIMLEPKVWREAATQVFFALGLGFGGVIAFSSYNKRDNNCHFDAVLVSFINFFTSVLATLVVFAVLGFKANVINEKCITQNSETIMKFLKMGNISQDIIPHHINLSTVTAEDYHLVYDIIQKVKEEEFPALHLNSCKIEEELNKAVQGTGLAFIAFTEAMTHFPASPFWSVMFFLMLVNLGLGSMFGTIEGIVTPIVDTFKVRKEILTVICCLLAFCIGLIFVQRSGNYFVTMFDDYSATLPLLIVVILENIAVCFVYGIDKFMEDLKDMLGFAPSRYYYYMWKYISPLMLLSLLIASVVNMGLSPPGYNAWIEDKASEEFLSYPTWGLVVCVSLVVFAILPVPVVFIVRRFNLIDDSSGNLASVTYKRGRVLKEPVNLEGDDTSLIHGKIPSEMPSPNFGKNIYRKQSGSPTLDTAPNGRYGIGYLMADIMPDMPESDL

Histamine H1 receptor = Histamine H1 receptor (Homo sapiens, UniProt P35367); assay: Displacement of [3H]mepyramine from human histamine H1 receptor expressed in Sf9 cells by scintillation counting method
Chain of Histamine H1 receptor (P35367 whole entry): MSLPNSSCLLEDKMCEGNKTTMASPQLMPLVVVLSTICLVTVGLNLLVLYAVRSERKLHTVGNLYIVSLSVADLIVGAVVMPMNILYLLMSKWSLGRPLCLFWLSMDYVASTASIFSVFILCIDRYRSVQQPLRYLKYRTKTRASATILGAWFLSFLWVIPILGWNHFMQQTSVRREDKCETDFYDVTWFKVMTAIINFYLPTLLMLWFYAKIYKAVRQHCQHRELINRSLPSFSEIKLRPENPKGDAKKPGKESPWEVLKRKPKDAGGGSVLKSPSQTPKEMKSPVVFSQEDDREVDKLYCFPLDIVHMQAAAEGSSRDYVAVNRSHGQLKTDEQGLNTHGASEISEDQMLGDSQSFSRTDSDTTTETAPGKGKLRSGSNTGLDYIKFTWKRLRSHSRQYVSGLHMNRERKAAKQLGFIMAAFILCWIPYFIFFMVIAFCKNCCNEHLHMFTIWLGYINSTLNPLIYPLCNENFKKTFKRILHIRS

[2] = molecular target: T2, Sodium-dependent neutral amino acid transporter B(0)AT2 (Homo sapiens) (UniProt Q9H2J7); assay: Inhibition of eGFP-tagged human B0AT2 expressed in HEK293 cells at 5 mM measured within 10 mins by [3H]proline uptake assay
T2 sequence (whole entry): T1 sequence (Q9H2J7 whole entry)

[3] = molecular target: T2, Sodium-dependent neutral amino acid transporter B(0)AT2 (Homo sapiens); assay: Reversible inhibition of eGFP-tagged human B0AT2 expressed in HEK293 cells assessed as reduction in proline-induced inward current at 100 uM measured post drug wash out by patch clamp assay
[4] = molecular target: T2, Sodium-dependent neutral amino acid transporter B(0)AT2 (Homo sapiens); assay: Activation of eGFP-tagged human B0AT2 expressed in HEK293 cells assessed as induction of inward current at 100 uM by patch clamp assay
[5] = molecular target: T2, Sodium-dependent neutral amino acid transporter B(0)AT2 (Homo sapiens); assay: Inhibition of eGFP-tagged human B0AT2 expressed in HEK293 cells assessed as reduction in proline-induced inward current at 100 uM by patch clamp assay

| Structure (SMILES) | IC50 [1] [µM] | also measured |
| --- | --- | --- |
| CCOC(=O)N1CCC(=C2c3ccc(Cl)cc3CCc3c(C#N)ccnc32)CC1 | > 80 | – |
| O=C(Cc1ccccc1)N1CCC(=C2c3ccc(Cl)cc3CCc3cccnc32)CC1 | 16.1 | – |
| O=C(Oc1ccccc1)N1CCC(=C2c3ccc(Cl)cc3CCc3cccnc32)CC1 | > 80 | – |
| COC(=O)N1CCC(=C2c3ccc(Cl)cc3CCc3cccnc32)CC1 | 19.6 | – |
| O=C(OCc1ccccc1)N1CCC(=C2c3ccc(Cl)cc3CCc3cccnc32)CC1 | > 80 | – |
| CCOC(=O)N1CCC(=C2c3ccc(Cl)cc3CCc3c(CO)ccnc32)CC1 | 18.3 | – |
| CCNC(=O)N1CCC(=C2c3ccc(Cl)cc3CCc3cccnc32)CC1 | 35 | – |
| CC(C)C(=O)N1CCC(=C2c3ccc(Cl)cc3CCc3cccnc32)CC1 | 41.5 | – |
| CCCCCC(=O)N1CCC(=C2c3ccc(Cl)cc3CCc3cccnc32)CC1 | 5.2 | – |
| NCC(=O)N1CCC(=C2c3ccc(Cl)cc3CCc3cccnc32)CC1 | 22.9 | – |
| Cc1cncc(CN2CCC(=C3c4ccc(Cl)cc4CCc4cccnc43)CC2)c1 [RUPATADINE] | > 40 | – |
| CC(C)OC(=O)N1CCC(=C2c3ccc(Cl)cc3CCc3cccnc32)CC1 | 16.8 | – |
| CCOC(=O)N1CCC(=C2c3ccc(Cl)cc3CCc3cc(OC)cnc32)CC1 | 4.5 | Ki (Histamine H1 receptor): 1.95 µM |
| NCCC(=O)N1CCC(=C2c3ccc(Cl)cc3CCc3cccnc32)CC1 | 18.7 | – |
| CCCC(=O)N1CCC(=C2c3ccc(Cl)cc3CCc3cccnc32)CC1 | 4.9 | Ki (Histamine H1 receptor): 0.171 µM |
| C=CCOC(=O)N1CCC(=C2c3ccc(Cl)cc3CCc3cccnc32)CC1 | 4.9 | – |
| CC(C)CC(=O)N1CCC(=C2c3ccc(Cl)cc3CCc3cccnc32)CC1 | 10.8 | Ki (Histamine H1 receptor): 0.289 µM |
| CC(C)C[C@@H](N)C(=O)N1CCC(=C2c3ccc(Cl)cc3CCc3cccnc32)CC1 | 7.7 | Ki (Histamine H1 receptor): 4.65 µM |
| NC1(C(=O)O)CC2CCC1C2 (stereo unspecified) | – | inhibition [2]: 80% |
| CCOC(=O)N1CCC(=C2c3ccc(Cl)cc3CCc3cccnc32)CC1 [LORATADINE] | 4 | inhibition [3]: Active; Activity [4]: inactive; inhibition [5]: Active |
| CC(C)[C@@H](N)C(=O)N1CCC(=C2c3ccc(Cl)cc3CCc3cccnc32)CC1 | 39.1 | – |
| CCOC(=O)N1CCC(=C2c3ccc(Cl)cc3CCc3cc(O)cnc32)CC1 | 17.6 | – |
| C/C=C/C(=O)N1CCC(=C2c3ccc(Cl)cc3CCc3cccnc32)CC1 | 5 | Ki (Histamine H1 receptor): 0.153 µM |
| Clc1ccc2c(c1)CCc1cccnc1C2=C1CCNCC1 [DESLORATADINE] | 172 | – |
| O=C(CC1CCCCC1)N1CCC(=C2c3ccc(Cl)cc3CCc3cccnc32)CC1 | 5.7 | Ki (Histamine H1 receptor): 0.441 µM |
| CN1CCC(=C2c3ccc(Cl)cc3CCc3cccnc32)CC1 | > 80 | – |
| CCCOC(=O)N1CCC(=C2c3ccc(Cl)cc3CCc3cccnc32)CC1 | 4.6 | – |
| CCOC(=O)N1CCC(=C2c3ccc(Cl)cc3CCc3ccc(C#N)nc32)CC1 | > 80 | – |

Further lines, with some results ahead:

| IC50 [1] [µM] | Structure (SMILES) | also measured |
| --- | --- | --- |
| > 80 | CC(C)(C)OC(=O)N1CCC(=C2c3ccc(Cl)cc3CCc3cccnc32)CC1 | – |
| 36 | CCC(=O)N1CCC(=C2c3ccc(Cl)cc3CCc3cccnc32)CC1 | – |
| 14.8 | CCOC(=O)N1CC=C(C2c3ccc(Cl)cc3CCc3cccnc32)CC1 (stereo unspecified) | – |
| 12.4 | CCOC(=O)N1CCC(=C2c3ccc(Cl)cc3CCc3ccc(C(=O)OC)nc32)CC1 | Ki (Histamine H1 receptor): > 10 µM |
| 26.4 | COCC(=O)N1CCC(=C2c3ccc(Cl)cc3CCc3cccnc32)CC1 | – |
| 5.3 | CCSC(=O)N1CCC(=C2c3ccc(Cl)cc3CCc3cccnc32)CC1 | – |
| > 80 | CCOC(=O)N1CCC(=C2c3ccc(Cl)cc3CCc3ccc(CO)nc32)CC1 | – |
| 3.4 | CCCCC(=O)N1CCC(=C2c3ccc(Cl)cc3CCc3cccnc32)CC1 | Ki (Histamine H1 receptor): 0.147 µM |
| > 80 | CCCS(=O)(=O)N1CCC(=C2c3ccc(Cl)cc3CCc3cccnc32)CC1 | – |
| 7.8 | CC(C)COC(=O)N1CCC(=C2c3ccc(Cl)cc3CCc3cccnc32)CC1 | Ki (Histamine H1 receptor): 1.27 µM |
| 54.8 | CC(=O)N1CCC(=C2c3ccc(Cl)cc3CCc3cccnc32)CC1 [SCH-37370] | – |
